In BindingDB's records for patent US12065436 (Cytokinetics, 2024):

Target: T1, Myosin-7 (Bos taurus, UniProt Q9BE39)
T1 construct: gene MYH7
Assay: Myofibril Assays
Protocol: To evaluate the effect of compounds on the ATPase activity of full-length cardiac myosin in the context of the native sarcomere, skinned myofibril assays were performed. Bovine cardiac myofibrils were obtained by homogenizing bovine cardiac left ventricular tissue in the presence of a detergent such as triton X-100. Such treatment removes membranes and a majority of the soluble cytoplasmic proteins but leaves intact the cardiac sarcomeric acto-myosin apparatus. Myofibril preparations retain the ability to hydrolyze ATP in an Ca2+ regulated manner. […] Small molecule agents were assessed for their ability to inhibit the steady-state ATPase activity of bovine cardiac myofibrils using pyruvate kinase and lactate dehydrogenase (PK/LDH)-coupled enzyme system. This assay regenerates myosin-produced ADP into ATP by oxidizing NADH, producing an absorbance change at 340 nm.

T1 sequence (Q9BE39 whole entry, looked up): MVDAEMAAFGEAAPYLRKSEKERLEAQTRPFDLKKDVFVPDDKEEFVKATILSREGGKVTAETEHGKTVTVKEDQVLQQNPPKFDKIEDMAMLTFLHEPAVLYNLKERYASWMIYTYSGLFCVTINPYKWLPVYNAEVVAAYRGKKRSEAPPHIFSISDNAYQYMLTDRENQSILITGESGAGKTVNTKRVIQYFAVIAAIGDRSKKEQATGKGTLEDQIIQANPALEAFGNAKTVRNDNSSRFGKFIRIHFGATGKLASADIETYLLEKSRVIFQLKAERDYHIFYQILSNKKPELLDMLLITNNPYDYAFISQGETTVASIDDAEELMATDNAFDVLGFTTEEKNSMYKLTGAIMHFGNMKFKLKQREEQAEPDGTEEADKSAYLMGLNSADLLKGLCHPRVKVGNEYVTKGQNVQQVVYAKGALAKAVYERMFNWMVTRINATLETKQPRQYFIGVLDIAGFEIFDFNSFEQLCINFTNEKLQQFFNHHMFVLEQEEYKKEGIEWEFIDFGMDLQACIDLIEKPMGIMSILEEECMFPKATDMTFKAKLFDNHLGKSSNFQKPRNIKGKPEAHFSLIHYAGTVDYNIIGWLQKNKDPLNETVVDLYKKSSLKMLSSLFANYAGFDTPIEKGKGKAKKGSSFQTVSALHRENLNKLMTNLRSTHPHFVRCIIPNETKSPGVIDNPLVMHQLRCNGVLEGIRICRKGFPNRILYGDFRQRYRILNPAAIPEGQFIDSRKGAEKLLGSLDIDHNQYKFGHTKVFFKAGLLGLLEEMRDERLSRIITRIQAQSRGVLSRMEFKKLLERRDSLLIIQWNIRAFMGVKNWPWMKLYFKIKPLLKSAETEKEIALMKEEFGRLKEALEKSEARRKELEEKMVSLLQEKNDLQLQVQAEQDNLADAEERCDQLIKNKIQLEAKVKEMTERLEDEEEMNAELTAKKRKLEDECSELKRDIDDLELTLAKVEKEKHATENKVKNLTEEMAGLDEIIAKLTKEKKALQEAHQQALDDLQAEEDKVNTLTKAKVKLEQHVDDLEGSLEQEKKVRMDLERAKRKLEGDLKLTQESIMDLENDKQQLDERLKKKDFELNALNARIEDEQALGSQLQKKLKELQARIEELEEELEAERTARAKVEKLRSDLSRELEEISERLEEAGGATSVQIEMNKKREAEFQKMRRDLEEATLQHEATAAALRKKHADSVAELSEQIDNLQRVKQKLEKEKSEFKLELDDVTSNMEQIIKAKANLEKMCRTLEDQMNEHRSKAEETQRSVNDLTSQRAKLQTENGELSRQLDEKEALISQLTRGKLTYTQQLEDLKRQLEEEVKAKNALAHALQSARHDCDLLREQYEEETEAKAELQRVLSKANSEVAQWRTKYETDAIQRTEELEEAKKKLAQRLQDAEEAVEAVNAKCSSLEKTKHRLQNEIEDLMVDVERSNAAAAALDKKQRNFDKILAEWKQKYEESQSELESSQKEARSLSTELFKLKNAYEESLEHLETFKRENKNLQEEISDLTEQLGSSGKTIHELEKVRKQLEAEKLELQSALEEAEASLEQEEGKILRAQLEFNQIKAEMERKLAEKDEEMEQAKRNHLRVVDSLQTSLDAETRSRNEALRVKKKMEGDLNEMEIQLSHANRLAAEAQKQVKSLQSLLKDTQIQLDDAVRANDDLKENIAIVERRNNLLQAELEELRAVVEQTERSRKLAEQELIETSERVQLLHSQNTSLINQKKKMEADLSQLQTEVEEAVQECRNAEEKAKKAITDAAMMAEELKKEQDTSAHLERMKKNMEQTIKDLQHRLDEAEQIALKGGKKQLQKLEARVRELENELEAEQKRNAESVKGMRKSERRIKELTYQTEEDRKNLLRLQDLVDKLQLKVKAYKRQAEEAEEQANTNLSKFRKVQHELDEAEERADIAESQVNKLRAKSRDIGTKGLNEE

IC50 [µM]	Structure (SMILES)
14.9	Cc1nc(-c2ccc3c(c2)CCC3NC(=O)Nc2cnccn2)no1 (stereo not given) [US12065436, Compound 86]
0.9	Cc1cnoc1C(=O)N[C@@H]1CCc2cc(-c3noc(C(F)F)n3)ccc21 [US12065436, Compound 93]
5.8	Cc1cc(C(=O)NC2CCc3cc(-c4noc(C(F)F)n4)ccc32)on1 (stereo not given) [US12065436, Compound 102]
2.2	Cc1cnoc1C(=O)NC1CCc2cc(-c3noc(C(F)F)n3)ccc21 (stereo not given) [US12065436, Compound 103]
9.3	O=C(N[C@@H]1CCc2cc(-c3noc(C4CC4)n3)ccc21)C1CC1 [US12065436, Compound 318]
0.8	CCc1cc(-c2ccc3c(c2)CC[C@H]3NC(=O)OC)no1 [US12065436, Compound 345]
3.2	Cn1cc(C(=O)N[C@@H]2CCc3cc(-c4noc(C5CCC5)n4)ccc32)cn1 [US12065436, Compound 411]
7.1	CCc1nc(-c2ccc3c(c2)CC[C@H]3NC(=O)c2cnn(C3CN(C(=O)OC(C)(C)C)C3)c2)no1 [US12065436, Compound 471]
39.2	CCc1nc(-c2ccc3c(c2)CC[C@H]3NC(=O)c2cnn(C3CN(C(=O)OC)C3)c2)no1 [US12065436, Compound 480]
5.8	COCc1nc(-c2ccc3c(c2)CC[C@H]3NC(=O)c2cnc(C)n2C)no1 [US12065436, Compound 691]
